According to ChEMBL document CHEMBL1151554, “Non thiazolidinedione antihyperglycaemic agents. 1: -Heteroatom substituted -phenylpropanoic acids” (Bioorg Med Chem Lett, 1996):

What was measured:
[1] = test system: Mus musculus; test: In vivo inhibition of glucose load induced hyperglycaemia in fasted C57B1/6 ob/ob mice.; type: functional
[2] = molecular target: T1, Peroxisome proliferator-activated receptor gamma (Homo sapiens) (UniProt P37231)
T1 sequence (whole entry): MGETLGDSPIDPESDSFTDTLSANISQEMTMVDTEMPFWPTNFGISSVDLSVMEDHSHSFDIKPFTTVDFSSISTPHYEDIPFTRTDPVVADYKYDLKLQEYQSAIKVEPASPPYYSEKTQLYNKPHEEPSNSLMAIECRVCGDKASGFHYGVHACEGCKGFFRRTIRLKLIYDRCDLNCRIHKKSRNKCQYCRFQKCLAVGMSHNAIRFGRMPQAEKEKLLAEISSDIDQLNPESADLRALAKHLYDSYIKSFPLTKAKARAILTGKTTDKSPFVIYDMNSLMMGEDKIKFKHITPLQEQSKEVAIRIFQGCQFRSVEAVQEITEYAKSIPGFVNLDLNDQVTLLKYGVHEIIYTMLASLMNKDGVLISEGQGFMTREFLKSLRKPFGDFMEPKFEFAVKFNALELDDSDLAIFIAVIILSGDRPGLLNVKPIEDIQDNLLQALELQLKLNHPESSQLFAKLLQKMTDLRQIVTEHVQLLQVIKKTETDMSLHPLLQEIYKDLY

[3] = molecular target: T2, Peroxisome proliferator-activated receptor gamma (Homo sapiens, UniProt P37231)
T2 sequence (P37231 whole entry): T1 sequence (whole entry)
Description: inhibition of [125I]SB 236636 binding to human PPAR gamma receptor

| SMILES | ED25 [1] [µM/kg] | Displacement [2] [%] | Ki [3] [nM] |
| --- | --- | --- | --- |
| COC(=O)C(Cc1ccc(OCCN(C)c2nc3ccccc3o2)cc1)N(C)C (stereo unspecified) | 1000 | 26 | – |
| CN(CCOc1ccc(CC(C(=O)O)S(=O)(=O)c2ccccc2)cc1)c1nc2ccccc2o1 (stereo unspecified) | 1000 | – | – |
| CN(CCOc1ccc(CC(S)C(=O)O)cc1)c1nc2ccccc2o1 (stereo unspecified) | 300 | – | – |
| CN(CCOc1ccc(CC(Cl)C(=O)O)cc1)c1nc2ccccc2o1 (stereo unspecified) | 10 | – | – |
| CN(CCOc1ccc(CC(OCCc2ccccc2)C(=O)O)cc1)c1nc2ccccc2o1 (stereo unspecified) | 1 | – | – |
| CN(CCOc1ccc(CC(OCc2ccccc2)C(=O)[O-])cc1)c1nc2ccccc2o1.[Na+] (stereo unspecified) | 0.3 | – | – |
| COC(=O)C(Cc1ccc(OCCN(C)c2nc3ccccc3o2)cc1)OC(C)C (stereo unspecified) | <0.3 | – | – |
| CNC(Cc1ccc(OCCN(C)c2nc3ccccc3o2)cc1)C(=O)OC (stereo unspecified) | 1000 | – | – |
| Cc1c(C)c2c(c(C)c1O)CCC(C)(COc1ccc(CC3SC(=O)NC3=O)cc1)O2 (stereo unspecified) [TROGLITAZONE] | 400 | – | – |
| COC(=O)CCc1ccc(OCCN(C)c2nc3ccccc3o2)cc1 | >2000 | – | – |
| COC(=O)C(Cc1ccc(OCCN(C)c2nc3ccccc3o2)cc1)OC (stereo unspecified) | 3 | – | – |
| COC(=O)C(Cl)Cc1ccc(OCCN(C)c2nc3ccccc3o2)cc1 (stereo unspecified) | 10 | – | – |
| CN(CCOc1ccc(CC(Oc2ccccc2)C(=O)O)cc1)c1nc2ccccc2o1 (stereo unspecified) | 1 | – | 0.4 |
| COC(=O)C(Br)Cc1ccc(OCCN(C)c2nc3ccccc3o2)cc1 (stereo unspecified) | 100 | – | – |
| COC(Cc1ccc(OCCN(C)c2nc3ccccc3o2)cc1)C(=O)O (stereo unspecified) | 3 | – | – |
| COC(=O)C(Cc1ccc(OCCN(C)c2nc3ccccc3o2)cc1)SC (stereo unspecified) | 100 | – | – |
| CCOC(Cc1ccc(OCCN(C)c2nc3ccccc3o2)cc1)C(=O)O (stereo unspecified) | 0.1 | – | – |
| CCCOC(Cc1ccc(OCCN(C)c2nc3ccccc3o2)cc1)C(=O)[O-].[Na+] (stereo unspecified) | 0.3 | – | – |
| COC(=O)C(Cc1ccc(OCCN(C)c2nc3ccccc3o2)cc1)Sc1ccccc1 (stereo unspecified) | 30 | – | – |
| CN(CCOc1ccc(CC(Nc2ccccc2)C(=O)O)cc1)c1nc2ccccc2o1 (stereo unspecified) | 30 | – | – |
| CN(CCOc1ccc(CC(Sc2ccccc2)C(=O)O)cc1)c1nc2ccccc2o1 (stereo unspecified) | 30 | – | 37 |
| CN(CCOc1ccc(CC(F)C(=O)O)cc1)c1nc2ccccc2o1 (stereo unspecified) | 10 | – | – |
| CN(CCOc1ccc(CC2SC(=O)NC2=O)cc1)c1nc2ccccc2o1 (stereo unspecified) [BRL-48482] | 3 | – | – |
